Results: PMC10762035, “Molecular basis of human trace amine-associated receptor 1 activation” (Nature Communications, 2024)
Positions count from the first letter of the chain named. Values joined by “and” are separate entries in the source; they are usually repeats but may differ in a detail not shown here. Identical values can stand only once. Like-named read-outs stand apart in the source and are kept apart here.

Assays:
Type in all cases: cell-based
hTA1 C96S = target: T1, hTA1 C96S (Homo sapiens, UniProt Q96RJ0, C96S); assay: GloSensor cAMP accumulation assay, C96S mutant; conditions: log[Compound]
T1 construct: expressed in transfected cells; host or cells: HEK293T
T1 sequence (Q96RJ0 1-339 C96S): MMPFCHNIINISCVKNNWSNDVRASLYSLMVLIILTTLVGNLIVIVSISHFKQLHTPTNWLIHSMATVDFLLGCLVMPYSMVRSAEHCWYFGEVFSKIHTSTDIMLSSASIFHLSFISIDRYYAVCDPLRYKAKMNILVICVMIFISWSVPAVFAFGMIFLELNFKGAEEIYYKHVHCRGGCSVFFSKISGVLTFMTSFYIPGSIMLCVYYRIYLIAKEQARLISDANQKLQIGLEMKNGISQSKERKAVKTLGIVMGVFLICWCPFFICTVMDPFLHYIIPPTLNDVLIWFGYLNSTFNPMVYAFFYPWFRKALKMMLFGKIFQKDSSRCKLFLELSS

hTA1 C178S = target: T2, hTA1 C178S (Homo sapiens, UniProt Q96RJ0, C178S); assay: GloSensor cAMP accumulation assay, C178S mutant; conditions: for C178S - Normalized Luminescence Counts (N=2): log[Compound], single replicates
T2 construct: expressed in transfected cells; host or cells: HEK293T
T2 sequence (Q96RJ0 1-339 C178S): T1 sequence (Q96RJ0 1-339 C96S) with S96C, C178S

hTA1 W264F = target: T3, hTA1 W264F (Homo sapiens, UniProt Q96RJ0, W264F); assay: GloSensor cAMP accumulation assay, W264F mutant;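 further: cells transiently transfected with receptor plus GloSensor, luminescence read 30 min after agonist addition at room temperature, concentration-response curves fitted by log(agonist) vs response regression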
T3 construct: expressed in transfected cells; host or cells: HEK293T
T3 sequence (Q96RJ0 1-339 W264F): T1 sequence (Q96RJ0 1-339 C96S) with S96C, W264F

hTA1 S107C = target: T4, hTA1 S107C (Homo sapiens, UniProt Q96RJ0, S107C); assay: GloSensor cAMP accumulation assay, S107C mutant;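 further: cells transiently co-expressing receptor and GloSensor biosensor, luminescence read after 30 min agonist exposure at room temperature, concentration-response fitted by nonlinear regression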
T4 construct: expressed in transfected cells; host or cells: HEK293T
T4 sequence (Q96RJ0 1-339 S107C): T1 sequence (Q96RJ0 1-339 C96S) with S96C, S107C

hTA1 I290N = target: T5, hTA1 I290N (Homo sapiens, UniProt Q96RJ0, I290N); assay: GloSensor cAMP accumulation assay, I290N mutant;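 further: cells transiently co-expressing hTA1 and the GloSensor cAMP biosensor, luminescence read 30 min after compound addition at room temperature, efficacy scaled to the maximal β-PEA response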
T5 construct: expressed in transfected cells; host or cells: HEK293T
T5 sequence (Q96RJ0 1-339 I290N): T1 sequence (Q96RJ0 1-339 C96S) with S96C, I290N

[1] = W246F mutant (so in the source) minus WT average

SMILES: CCC(CC1COC(N)=N1)c1ccccc1 (stereo not drawn) [Ro5256390]
- Normalized Luminescence Counts (hTA1 C96S; C96S, M = -5, single replicates (N=2)): -0.5726 and -3.209 and -1.891 and -16.2542 and -4.6346 and -2.698
- Normalized Luminescence Counts (hTA1 C96S; C96S, M = -5.522, single replicates (N=2)): -1.891 (2×) and -3.209 and -4.6346 and -8.508 and 10.8582
- Normalized Luminescence Counts (hTA1 C96S; C96S, M = -6, single replicates (N=2)): 4.041 and -2.55 and -0.5726 and 5.048 (2×) and -10.4444
- Normalized Luminescence Counts (hTA1 C96S; C96S, M = -6.522, single replicates (N=2)): 1.4045 and -2.55 and 2.723 and -0.7614 and -4.6346 and 3.112
- Normalized Luminescence Counts (hTA1 C96S; C96S, M = -7, single replicates (N=2)): 2.723 and -1.891 and 1.4045 and -0.7614 (2×) and -4.6346
- Normalized Luminescence Counts (hTA1 C96S; C96S, M = -7.522, single replicates (N=2)): 5.359 and -3.209 and 2.723 and -0.7614 and -10.4444 and 14.7315
- Normalized Luminescence Counts (hTA1 C96S; C96S, M = -8, single replicates (N=2)): 2.064 and -0.5726 (2×) and 30.2243 and -8.508 and 12.7948
- Normalized Luminescence Counts (hTA1 C96S; C96S, M = -8.522, single replicates (N=2)): 0.7455 and -1.891 and 4.7 and 14.7315 and 3.112 and 12.7948
- Normalized Luminescence Counts (hTA1 C96S; C96S, M = -9, single replicates (N=2)): 0.7455 and -1.232 and -1.891 and 18.6047 and 8.922 and -4.6346
- Normalized Luminescence Counts (hTA1 C96S; C96S, M = -9.522, single replicates (N=2)): 0.08646 and -3.209 and -2.55 and 3.112 and 1.175 and -0.7614
- Normalized Luminescence Counts (hTA1 C96S; C96S, M = -10, single replicates (N=2)): 1.4045 and -0.5726 and 0.7455 and 3.112 and -2.698 (2×)
- Normalized Luminescence Counts (hTA1 C96S; C96S, M = -10.522, single replicates (N=2)): -0.5726 and -2.55 and -1.232 and 5.048 and 6.985 and -2.698
- Normalized Luminescence Counts (hTA1 C96S; C96S, M = -11, single replicates (N=2)): 0.7455 and 0.08646 and 4.7 and 32.1609 and 18.6047 and 10.8582
- Normalized Luminescence Counts (hTA1 C96S; C96S, M = -11.522, single replicates (N=2)): 3.382 and 0.7455 and 1.4045 and 20.5413
- Normalized Luminescence Counts (hTA1 C96S; M = -11.522, single replicates, mutant block above C178S): 0.4362 and 0.4589 and 0.8459 and 2.031 and 1.818 and 1.444
- Normalized Luminescence Counts (hTA1 C96S; M = -12, single replicates, mutant block above C178S): 0.6183 and 0.1175 and -0.01903 and 3.527 and 0.8561 and 0.9629
- Normalized Luminescence Counts (hTA1 C96S; M = -12.522, single replicates, mutant block above C178S): -0.1556 (2×) and -0.2011 and 1.711 and 1.818 and 0.6424
- ΔpEC50 values (each mutant value - WT average), Mean (hTA1 C178S; C178S, each row one experiment (N=2), 3 replicates): -0.5545 and -0.2923
- Emax (hTA1 C178S; C178S, relative to β-PEA): 120%
- Emax values, Mean (hTA1 C178S; C178S, β-PEA = 100, each row one experiment (N=2), 3 replicates): 104.356 and 134.792
- EC50 (hTA1 C178S; EC50, C178S, n=2): 14.1 nM
- C178S - Normalized Luminescence Counts (N=2) (hTA1 C178S; M = -5): 102.446 and 115.063 and 100.063 and 98.247 and 134.327 and 139.921
- C178S - Normalized Luminescence Counts (N=2) (hTA1 C178S; M = -5.522): 112.587 and 101.839 and 98.2408 and 148.866 and 141.178 and 145.097
- C178S - Normalized Luminescence Counts (N=2) (hTA1 C178S; M = -6): 99.8763 and 105.203 and 90.1566 and 163.316 and 171.125 and 157.632
- C178S - Normalized Luminescence Counts (N=2) (hTA1 C178S; M = -6.522): 110.577 and 98.2408 and 97.8202 and 140.041 and 136.93 and 126.219
- C178S - Normalized Luminescence Counts (N=2) (hTA1 C178S; M = -7): 89.6425 and 86.2313 and 90.5771 and 109.526 and 118.68 and 112.368
- C178S - Normalized Luminescence Counts (N=2) (hTA1 C178S; M = -7.522): 61.5581 and 68.0535 and 67.1189 and 100.042 and 97.9478 and 96.7511
- C178S - Normalized Luminescence Counts (N=2) (hTA1 C178S; M = -8): 35.9971 and 29.5951 and 33.2867 and 60.9705 and 68.8087 and 90.3489
- C178S - Normalized Luminescence Counts (N=2) (hTA1 C178S; M = -8.522): 17.2585 and 16.3239 and 17.6791 and 41.704 and 41.2253 and 41.0458
- C178S - Normalized Luminescence Counts (N=2) (hTA1 C178S; M = -9): 9.361 and 5.296 and 6.978 and 20.7921 and 25.9976 and 27.6132
- C178S - Normalized Luminescence Counts (N=2) (hTA1 C178S; M = -9.522): 1.184 and 0.9499 and 2.959 and 8.825 and 6.193 and 11.0392
- C178S - Normalized Luminescence Counts (N=2) (hTA1 C178S; M = -10): 1.651 and 2.539 and 1.885 and 5.9234 and 4.278 and 6.671
- C178S - Normalized Luminescence Counts (N=2) (hTA1 C178S; M = -10.522): 0.4359 and -0.07812 and -0.265 and 1.256 and 0.02978 and 1.197
- C178S - Normalized Luminescence Counts (N=2) (hTA1 C178S; M = -11): 0.9499 and 0.763 and 0.2957 and 5.146 and 2.064 and 5.0259
- C178S - Normalized Luminescence Counts (N=2) (hTA1 C178S; M = -11.522): -0.4987 and 1.2303 and -0.03139 and 3.65 and 2.333 and 2.932
- C178S - Normalized Luminescence Counts (N=2) (hTA1 C178S; M = -12): 0.2023 and 1.184 and 0.4359 and 4.098 and 3.021 and 6.312
- C178S - Normalized Luminescence Counts (N=2) (hTA1 C178S; M = -12.522): 0.2023 and -0.1249 and -0.03139 and 3.321 and 2.124 and 7.958
- EC50 (hTA1 C178S; pEC50 values, Mean, C178S, each row one experiment (N=2), 3 replicates): 19.1 nM and 10.5 nM
- Emax (hTA1 C178S; read-out: Span ± SEM (Emax normalized to β-PEA), C178S, n=2): 120%
- Emax values, Mean (hTA1 W264F): 62.0152 and 91.1137
- EC50 (hTA1 W264F; EC50, W264F, n=2): 127 nM
- ΔEmax values (each mutant value - WT average) (hTA1 W264F; [1]): -41.2891
- ΔpEC50 values (each mutant value - WT average) (hTA1 W264F; [1]): -1.382 and -1.371
- EC50 (hTA1 W264F; W246F mutant (so in the source), each line an independent experiment, 3 replicates, read-out: pEC50 values (Mean) (converted)): 129 nM and 125 nM
- Emax (hTA1 W264F; read-out: Span ± SEM (Emax normalized to β-PEA), W264F, n=2): 76.6 ± 14.5%
- EC50 (hTA1 S107C; EC50, S107C, n=2): 504 nM
- decrease in potency vs wild type (hTA1 S107C; S107C): approximately 100 fold
- ΔEmax values (each mutant value - WT average) (hTA1 S107C; S107C mutant minus WT average): -34.2322
- Emax values, Mean (hTA1 S107C; S107C mutant, β-PEA = 100, each line an independent experiment, 3 replicates): 69.072 and 124.486
- Emax (hTA1 S107C; read-out: Span ± SEM (Emax normalized to β-PEA), S107C, n=2): 88.8 ± 19.8%
- EC50 (hTA1 I290N; EC50, I290N, n=2): 6.21 nM
- cAMP accumulation response, single replicate values (source data, Supplementary Figure 5) (hTA1 I290N; hTA1 I290N (N=2), log[Compound], M = -5): 109.556 and 109.922 and 109.294 and 105.343
- ΔpEC50 values (each mutant value - WT average), Mean (hTA1 I290N; hTA1 I290N mutant minus WT average): -0.14 and 0.00774
- Emax values, Mean (hTA1 I290N; hTA1 I290N mutant, β-PEA set to 100, each grid row a separate experiment, 3 replicates): 96.7119
- EC50 (hTA1 I290N; pEC50 values (Mean), hTA1 I290N mutant, Figure 3B source data, each grid row a separate experiment, 3 replicates): 7.37 nM and 5.24 nM
- Emax (hTA1 I290N; read-out: Emax values (Mean), hTA1 I290N mutant, β-PEA set to 100, each grid row a separate experiment, 3 replicates): 101%
- Emax (hTA1 I290N; read-out: Span ± SEM (Emax normalized to β-PEA), I290N, n=2): 99 ± 2.27%
